# Where “and” joins values, the source holds several entries; their conditions need not be identical. Identical values can stand only once. Toxic doses and inconclusive results are not listed. Square brackets hold non-standard residues; d marks the D form. Peptide text beside a SMILES is read from it. Hpg = N[CH](C(=O)O)c1ccc(O)cc1
# System: P388 leukemia ip, CD2F1 mice, survival T/C
# Test: NCI In Vivo Anticancer Drug Screen. Data for tumor model P388 Leukemia (intraperitoneal) in CD2F1 (CDF1) mice
# Settings: endpoint: median survival time, higher = longer survival
# Procedure, shortened: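 Mice carrying the transplanted tumor received test compound or vehicle. Survival was recorded in each group, and the value is the treated-group measurement divided by that of the vehicle-treated control group.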
# [1] = dose: 50.0 mg/kg/injection, schedule: Q01DX009 (ip), vehicle: Klucel (hydroxypropylcellulose) (HPC)
# [2] = dose: 12.5 mg/kg/injection, schedule: Q01DX009 (ip), vehicle: saline with Tween-80
# [3] = dose: 25.0 mg/kg/injection, schedule: Q01DX009 (ip), vehicle: saline with Tween-80
# [4] = dose: 50.0 mg/kg/injection, schedule: Q01DX009 (ip), vehicle: saline with Tween-80
# [5] = dose: 100.0 mg/kg/injection, schedule: Q01DX009 (ip), vehicle: saline with Tween-80
# [6] = dose: 200.0 mg/kg/injection, schedule: Q01DX009 (ip), vehicle: saline with Tween-80
# [7] = dose: 100.0 mg/kg/injection, schedule: Q04DX003 (ip), vehicle: saline with Tween-80
# [8] = dose: 200.0 mg/kg/injection, schedule: Q04DX003 (ip), vehicle: saline with Tween-80
smiles,measurement,setting,value
CC(=O)NCCSC(=O)C(O)(c1ccccc1)c1ccccc1,T/C,[1],100 % of control
same,T/C,"dose: 100.0 mg/kg/injection, schedule: Q01DX009 (ip), vehicle: Klucel (hydroxypropylcellulose) (HPC)",98 % of control
same,T/C,"dose: 200.0 mg/kg/injection, schedule: Q01DX009 (ip), vehicle: Klucel (hydroxypropylcellulose) (HPC)",99 % of control
COc1cccc2c1C(=O)c1c(O)c3c(c(O)c1C2=O)C[C@@](O)(/C(C)=N/NC(=O)c1ccc(O)cc1)C[C@@H]3OC1CC(N)C(O)C(C)O1 (stereo not given in full),T/C,"dose: 0.12 mg/kg/injection, schedule: Q01DX009 (ip), vehicle: water",115 % of control
same,T/C,"dose: 0.25 mg/kg/injection, schedule: Q01DX009 (ip), vehicle: water",111 % of control
same,T/C,"dose: 0.5 mg/kg/injection, schedule: Q01DX009 (ip), vehicle: water",152 % of control and 157 % of control
same,T/C,"dose: 1.0 mg/kg/injection, schedule: Q01DX009 (ip), vehicle: water",160 % of control
same,T/C,"dose: 2.0 mg/kg/injection, schedule: Q01DX009 (ip), vehicle: water",160 % of control and 180 % of control
same,T/C,"dose: 4.0 mg/kg/injection, schedule: Q01DX009 (ip), vehicle: water",161 % of control and 171 % of control
same,T/C,"dose: 10.0 mg/kg/injection, schedule: Q01DX001 (ip), vehicle: water",174 % of control
same,T/C,"dose: 16.0 mg/kg/injection, schedule: Q01DX009 (ip), vehicle: water",111 % of control
same,T/C,"dose: 20.0 mg/kg/injection, schedule: Q01DX001 (ip), vehicle: water",117 % of control
NC(CSP(=O)(O)O)=NCC12CC3CC(CC(C3)C1)C2,T/C,"dose: 3.12 mg/kg/injection, schedule: Q01DX009 (ip), vehicle: saline with Tween-80",100 % of control
same,T/C,"dose: 6.25 mg/kg/injection, schedule: Q01DX009 (ip), vehicle: saline with Tween-80",104 % of control
same,T/C,[2],110 % of control
COC1C(O)=C2C(=O)OC(C)(O)/C=C/C=C\C=C/C=C/C(c3ccccc3)NC(=O)/C=C/C=C/C=C/C=C/C2(C)C1O (stereo not given),T/C,"dose: 12.5 mg/kg/injection, schedule: Q01DX009 (ip), vehicle: Klucel (hydroxypropylcellulose) (HPC)",103 % of control and 86 % of control
O=C1C2=C3C(=CC4COC3O4)C3C4COC(O4)C(=O)C3C2C2COC1O2 (stereo not given),T/C,"dose: 100.0 mg/kg/injection, schedule: Q04DX002 (ip), vehicle: Klucel (hydroxypropylcellulose) (HPC)",115 % of control
same,T/C,"dose: 200.0 mg/kg/injection, schedule: Q04DX002 (ip), vehicle: Klucel (hydroxypropylcellulose) (HPC)",109 % of control
same,T/C,"dose: 400.0 mg/kg/injection, schedule: Q04DX002 (ip), vehicle: Klucel (hydroxypropylcellulose) (HPC)",115 % of control
CN=C(N)N/N=C(\c1ccccc1)c1ccc(Br)cc1,T/C,"dose: 3.12 mg/kg/injection, schedule: Q04DX002 (ip), vehicle: saline with Tween-80",101 % of control
same,T/C,"dose: 6.25 mg/kg/injection, schedule: Q04DX002 (ip), vehicle: saline with Tween-80",108 % of control and 96 % of control
C=CC(=NC(C)C)NC(C)C,T/C,"dose: 1.56 mg/kg/injection, schedule: Q01DX009 (ip), vehicle: saline",100 % of control
same,T/C,"dose: 3.13 mg/kg/injection, schedule: Q01DX009 (ip), vehicle: saline",101 % of control
Cc1cccc(OCC(O)CNC(C)(C)C)c1C (stereo not given),T/C,[2],99 % of control
same,T/C,[3],98 % of control
same,T/C,[4],99 % of control
same,T/C,[5],99 % of control
O=C(CSc1ncnc2nc[nH]c12)c1ccccc1,T/C,[4],90 % of control
same,T/C,[5],100 % of control
same,T/C,[6],105 % of control
CCCCOc1ccc(C(=O)SCCCN=C(N)N)cc1,T/C,"dose: 12.5 mg/kg/injection, schedule: Q01DX005 (ip), vehicle: saline",98 % of control
same,T/C,"dose: 25.0 mg/kg/injection, schedule: Q01DX005 (ip), vehicle: saline",100 % of control
same,T/C,"dose: 50.0 mg/kg/injection, schedule: Q01DX005 (ip), vehicle: saline",96 % of control and 98 % of control and 105 % of control
same,T/C,"dose: 100.0 mg/kg/injection, schedule: Q01DX005 (ip), vehicle: saline",97 % of control
Brc1ccc2c3c(ccc2c1)OCCOCCOCCOCCOCCOc1ccc2cc(Br)ccc2c1-3,T/C,"dose: 100.0 mg/kg/injection, schedule: Q01DX001 (ip), vehicle: saline with Tween-80",104 % of control
same,T/C,"dose: 200.0 mg/kg/injection, schedule: Q01DX001 (ip), vehicle: saline with Tween-80",107 % of control
same,T/C,"dose: 400.0 mg/kg/injection, schedule: Q01DX001 (ip), vehicle: saline with Tween-80",104 % of control
Clc1ccc(C(Cn2ccnc2)OCc2c(Cl)cccc2Cl)cc1 (stereo not given),T/C,[4],102 % of control
same,T/C,[5],97 % of control
CCOC(=O)c1c(O)c(Cc2ccccc2)c(=O)n2c1[nH]c1cc(C)c(C)cc12,T/C,"dose: 7.5 mg/kg/injection, schedule: Q01DX005 (ip), vehicle: saline with Tween-80",100 % of control
same,T/C,"dose: 15.0 mg/kg/injection, schedule: Q01DX005 (ip), vehicle: saline with Tween-80",100 % of control
ClC(Cl)=Nc1cc(Cl)c(Cl)cc1Cl,T/C,"dose: 50.0 mg/kg/injection, schedule: Q01DX009 (ip), vehicle: saline",99 % of control
same,T/C,"dose: 100.0 mg/kg/injection, schedule: Q01DX009 (ip), vehicle: saline",90 % of control
same,T/C,"dose: 200.0 mg/kg/injection, schedule: Q01DX009 (ip), vehicle: saline",97 % of control
CC(=O)/C=C/C=C\C=C/N=C(c1ccccc1)c1ccccc1,T/C,"dose: 50.0 mg/kg/injection, schedule: Q04DX003 (ip), vehicle: saline with Tween-80",95 % of control
same,T/C,[7],93 % of control
same,T/C,[8],93 % of control
CC(C)CC(N)C(=O)NC(C(=O)O)c1ccc(O)cc1 (stereo not given) (H-Leu-[Hpg]-OH; configuration not given here),T/C,[4],103 % of control
same,T/C,[5],101 % of control
same,T/C,[6],102 % of control
CCN(CC)CCNc1c(C)cccc1Cl,T/C,"dose: 60.0 mg/kg/injection, schedule: Q01DX005 (ip), vehicle: saline with Tween-80",100 % of control
same,T/C,"dose: 120.0 mg/kg/injection, schedule: Q01DX005 (ip), vehicle: saline with Tween-80",100 % of control
[Cl][Pd][Cl],T/C,"dose: 3.0 mg/kg/injection, schedule: Q01DX009 (ip), vehicle: saline with Tween-80",95 % of control
same,T/C,"dose: 6.0 mg/kg/injection, schedule: Q01DX009 (ip), vehicle: saline with Tween-80",113 % of control
same,T/C,"dose: 12.0 mg/kg/injection, schedule: Q01DX009 (ip), vehicle: saline with Tween-80",122 % of control
CCCCN(CCCC)c1cc(=O)nc2ccccn12,T/C,"dose: 60.0 mg/kg/injection, schedule: Q01DX005 (ip), vehicle: saline",101 % of control
same,T/C,"dose: 120.0 mg/kg/injection, schedule: Q01DX005 (ip), vehicle: saline",101 % of control
same,T/C,"dose: 240.0 mg/kg/injection, schedule: Q01DX005 (ip), vehicle: saline",100 % of control
COC(=O)c1ccc(-c2cc(Cl)c3cc(S(=O)(=O)F)ccc3n2)cc1,T/C,[7],95 % of control
same,T/C,[8],90 % of control
same,T/C,"dose: 400.0 mg/kg/injection, schedule: Q04DX003 (ip), vehicle: saline with Tween-80",90 % of control
COC(=O)[C@@]12OC[C@]34[C@H]([C@@H](O)[C@@H]1O)[C@@]1(C)C=C(OC5OC(CO)C(O)C(O)C5O)C(=O)C(C)[C@@H]1C[C@H]3OC(=O)[C@H](OC(=O)C=C(C)C)[C@@H]24 (stereo not given in full),T/C,"dose: 0.25 mg/kg/injection, schedule: Q01DX009 (ip), vehicle: saline + alcohol",107 % of control
same,T/C,"dose: 0.5 mg/kg/injection, schedule: Q01DX009 (ip), vehicle: saline + alcohol",112 % of control
same,T/C,"dose: 1.0 mg/kg/injection, schedule: Q01DX009 (ip), vehicle: saline + alcohol",112 % of control
same,T/C,"dose: 2.0 mg/kg/injection, schedule: Q01DX009 (ip), vehicle: saline + alcohol",106 % of control
same,T/C,"dose: 4.0 mg/kg/injection, schedule: Q01DX009 (ip), vehicle: saline + alcohol",112 % of control
same,T/C,"dose: 8.0 mg/kg/injection, schedule: Q01DX009 (ip), vehicle: saline + alcohol",111 % of control
NC(N)=NS(=O)(=O)c1ccc([N+](=O)[O-])cc1,T/C,[2],103 % of control
same,T/C,[3],107 % of control
same,T/C,[4],111 % of control
COc1cc(C(=O)c2cc3c(cc2C)OCO3)cc(OC)c1OC,T/C,"dose: 25.0 mg/kg/injection, schedule: Q01DX009 (ip), vehicle: Klucel (hydroxypropylcellulose) (HPC)",109 % of control
same,T/C,[1],113 % of control
CC(=O)Nc1ccc(OCCOCCOc2ccc(NC(C)=O)cc2)cc1,T/C,[4],92 % of control
same,T/C,[5],94 % of control
same,T/C,[6],91 % of control
CC(C)c1c(O)c(O)c2c(c1O)C(=O)C(O)=C1C(C)(C)CCC[C@@]12C,T/C,"dose: 12.5 mg/kg/injection, schedule: Q01DX005 (ip), vehicle: Klucel (hydroxypropylcellulose) (HPC)",98 % of control
same,T/C,"dose: 25.0 mg/kg/injection, schedule: Q01DX005 (ip), vehicle: Klucel (hydroxypropylcellulose) (HPC)",94 % of control
same,T/C,"dose: 50.0 mg/kg/injection, schedule: Q01DX005 (ip), vehicle: Klucel (hydroxypropylcellulose) (HPC)",102 % of control
same,T/C,"dose: 100.0 mg/kg/injection, schedule: Q01DX005 (ip), vehicle: Klucel (hydroxypropylcellulose) (HPC)",100 % of control
same,T/C,"dose: 200.0 mg/kg/injection, schedule: Q01DX005 (ip), vehicle: Klucel (hydroxypropylcellulose) (HPC)",109 % of control
